A short description of the data set: Human HepG2 cell viability assay in 384 well format. Format: toxicity, cell-based. More on the design: dose 125 nL, time 70.5 hour; concentration not given beside the values. To be noted: HepG2 cells, read-out: Inhibition.
Take `Cc1ccc(OCC(=O)Nc2cc(C(=O)O)cc(S(C)(=O)=O)c2)cc1C`: the cytotoxicity at 70.5 h came out at 0.676%.
In the case of `Cc1ccc(-c2nc(CN3CCCC3Cn3cc(C)cn3)no2)cc1` (configuration not stated), the cytotoxicity at 70.5 h amounted to 23.6%.
On to `COCCN1C[C@H]2CC[C@@H]1CN(C(=O)c1ccc(Cl)cc1)C2`, for which the cytotoxicity at 70.5 h was -6%.
Then `COc1ncccc1CN1C[C@@H]2COC[C@]2(COc2ccccn2)C1`, with -20.4%; and `CCN(CC)C(=O)CN(C)C(=O)c1ccc(-c2ccsc2)nc1C`, with 33.4%.
For `CCn1cc(NC(=O)C2CCN(CC(=O)N3CCOCC3)CC2)cn1`, the cytotoxicity at 70.5 h was -19%.
For the molecule `CCN(CC)C1(Cc2cc(COC)on2)COC1`, the cytotoxicity at 70.5 h was -0.489%.
In the case of `CC(C)N(C)[C@@H]1CCN(C(=O)[C@H]2CCCO2)[C@H]1Cc1cnn(C)c1`, the cytotoxicity at 70.5 h is -4.8%.
Turning to `CCCn1cc(C(=O)NC2CCN(CC(=O)NC3CC3)CC2)c(C)n1`, the cytotoxicity at 70.5 h was found to be 0.264%.
Then `Cc1cnc(N2C[C@@H]3[C@@H](C(=O)NC(C)C)CCS(=O)(=O)[C@@H]3C2)nc1`, with 18%; and `COCCn1cnnc1C1CCCN(C(C)C)C1` (configuration not stated), with 17.1%; and `CCn1ncc2c1C(COCC1CC1)CN(C(=O)c1ccncn1)C2` (configuration not stated), with -10.2%.
In the case of `Cc1ccsc1CNC(=O)CCc1c(C)nc2cc(O)nn2c1C`, the cytotoxicity at 70.5 h is -10.8%.
Turning to `CCc1ncc2c(n1)CN(Cc1nc(-c3cccnc3)no1)CC2`, the cytotoxicity at 70.5 h was -6.75%.
As to `CC(C)(C)C(=O)N1CCC(c2nc(O)cc(-c3ccccn3)n2)CC1`, the cytotoxicity at 70.5 h was 16%.
Under `O=C(c1cccnc1)N1CCN2C(=O)N(Cc3ccc(F)cc3)C[C@H]2C1` stands 9.22%; under `CN1CCC(n2nc(Cc3cccs3)nc2-c2ccncc2)CC1`, 2.89%.
On to `CCS(=O)(=O)NCCCNc1ncnc2cc(F)c(F)cc12`, for which the cytotoxicity at 70.5 h was -0.956%.
For `O=C(COc1ccc2c(c1)CCC2)NCc1ccco1`, the cytotoxicity at 70.5 h came out at 23.9%.
Then `CCOCCN1CCN(Cc2nc(C3CC3)no2)CC1CC` (configuration not stated), with 18.8%; and `Cc1ccsc1CN(Cc1cccnc1)C1CC(C)(C)NC(C)(C)C1`, with 5.95%.
Then `Cc1ccc(Cc2cnc(NC(=O)C3CNC(=O)N3)s2)cc1F` (configuration not stated), with -0.116%; and `CCCN1CCC(Cc2noc(-c3cccnc3OC)n2)CC1`, with 2.25%; and `Cc1nnc2n1CCN(C(=O)c1cn(-c3ccccc3Cl)nn1)C2`, with -9.21%.
With `O=S(=O)(C1CC1)N1C[C@@H]2CN(Cc3ccoc3)CCO[C@@H]2C1`, the cytotoxicity at 70.5 h was -15.4%.
As to `Cc1ccc(CN2CCc3c(COC(C)C)nn(C)c3C2)s1`, the cytotoxicity at 70.5 h was -9.08%.
For `CN(C)S(=O)(=O)c1ccc(CN2CCCC2CO)o1` (configuration not stated), the cytotoxicity at 70.5 h was -17%.
For `CC(C)CN1CCN(Cc2nc3c(s2)CCCC3)[C@H]2CS(=O)(=O)C[C@H]21`, the cytotoxicity at 70.5 h was determined as 10.7%.
For `c1cnc(N2CCOC3(CCN(CC4CCCCC4)CC3)C2)nc1`, the cytotoxicity at 70.5 h is -4.82%.
`O=C(c1scc2c1OCCO2)N1CCOC(CCc2ccccc2)C1` (configuration not stated): the cytotoxicity at 70.5 h amounted to 1.27%.
With `Cc1ccc(CC2CCCN2CC(=O)NCc2ccccn2)cc1` (configuration not stated), the cytotoxicity at 70.5 h worked out at 15.4%.
Consider `CC1CCCCN1C1CN(c2nc(C3CCCC3)nc3c2cnn3C)C1` (configuration not stated), for which the cytotoxicity at 70.5 h is -3.67%.
In the case of `COCCN1CC[C@H](OC)[C@@H]1Cc1ccccc1`, the cytotoxicity at 70.5 h was -0.421%.
As to `CCc1nnc(CN(C)C2CCCN(Cc3noc(C4CC4)n3)C2)o1` (configuration not stated), the cytotoxicity at 70.5 h came out at 12.1%.
With `CCc1ncc(S(C)(=O)=O)c(C2CCCNC2)n1` (configuration not stated), the cytotoxicity at 70.5 h was -5.94%.
In the case of `C/C(=C\c1ccccc1)CN1CCCC(c2nnc3n2CCNCC3)C1` (configuration not stated), the cytotoxicity at 70.5 h is -6.58%.
On to `Cc1ccc(CN(C)Cc2nc3ccc(F)cc3[nH]2)cn1`, for which the cytotoxicity at 70.5 h is -0.998%.
Regarding `Cc1csc(-c2cccc(NC(=O)NCC(C)(C)C(N)=O)c2)n1`, the cytotoxicity at 70.5 h was -0.0997%.
As for `COCCNC(=O)c1ccc2c(=O)n3c(nc2c1)CCCCC3`, the cytotoxicity at 70.5 h is -22.9%.
As for `c1ccc(-c2noc(CN3CCOC(Cn4cccn4)C3)n2)nc1` (configuration not stated), the cytotoxicity at 70.5 h is -8.08%.
As to `Cn1cncc1CN1CCC(O)(Cn2nc(-c3cccs3)oc2=O)CC1`, the cytotoxicity at 70.5 h was -2.36%.
Under `CC(C)c1nc(CN(C)Cc2ccc(O)c(Cl)c2)cs1` stands -13.5%; under `O=C(c1ccc2c(c1)CCCC2)N1CCN(c2cnccn2)CC1`, -11.8%; under `CCn1cc(CN2CCCN(C(=O)c3sccc3OC)CC2)cn1`, 3.74%.
For the molecule `COC(=O)N1CCCC(NC(=O)NCc2csc(C)n2)C1` (configuration not stated), the cytotoxicity at 70.5 h was -10.6%.
For the molecule `Cc1noc(C)c1CN1CCN(c2ccnc(-c3ccccc3)n2)CC1`, the cytotoxicity at 70.5 h was determined as 26.5%.
Under `FC(F)(F)Oc1ccc(CN2CCCC(n3cncn3)C2)cc1` (configuration not stated) stands -10.6%.
In the case of `NC(=O)C1(c2cnccn2)CCCN1Cc1cc2ccccc2o1` (configuration not stated), the cytotoxicity at 70.5 h is -9.2%.
Consider `COc1cccc(CNC[C@H]2COCc3nc4cccnc4n32)n1`, for which the cytotoxicity at 70.5 h was -8.19%.
With `CN(C)C(=O)C1CCCN1CCCNC(=O)c1ccccc1F` (configuration not stated), the cytotoxicity at 70.5 h was -1.14%.
Then `O=C(NCc1csc(Cc2ccccc2)n1)C1NCCc2[nH]cnc21` (configuration not stated), with -2.44%.
With `CC(C)c1ncc2c(n1)CN(Cc1cccc3c1OCCO3)CC2`, the cytotoxicity at 70.5 h worked out at 0.0459%.
Regarding `Cc1noc(C)c1CN1CCCCC1CCc1ccc(O)cc1` (configuration not stated), the cytotoxicity at 70.5 h is -1.36%.
Take `CN(C)C(=O)N1CCC2(CC1)CCN(Cc1ccccn1)C2=O`: the cytotoxicity at 70.5 h came out at 25.9%.
Take `Cc1nc2c(c(NC(C)C)n1)CCN(C(=O)c1cc[nH]n1)CC2`: the cytotoxicity at 70.5 h was -8.54%.
Under `O=c1c(Cc2ccccc2)c(O)ccn1Cc1ccco1` stands 0.508%; under `Cc1cc(C(=O)N2CCCC3(CCCN3Cc3cccnc3)C2)[nH]n1` (configuration not stated), 12.8%; under `CN(Cc1cccc(F)c1)C(=O)CN1CCCC1CCc1ccccc1` (configuration not stated), -4.07%.
As to `O=C1[C@@H]2CCN(Cc3ccoc3)C[C@@H]2OCCN1c1ccccc1`, the cytotoxicity at 70.5 h is -10.9%.
On to `CCN(Cc1noc(C2CCC2)n1)C(=O)c1cn2ccsc2n1`, for which the cytotoxicity at 70.5 h amounted to 14.6%.
Under `Cc1nc(CCCNC(=O)C2CC(=O)N(C(C)(C)C)C2)sc1C` (configuration not stated) stands -7.69%; under `Cn1cc(Br)c(=O)c(NS(=O)(=O)c2ccccc2F)c1`, -9.33%.
In the case of `COCCN1C(=O)CCC12CCCN(c1ncc(F)cn1)CC2` (configuration not stated), the cytotoxicity at 70.5 h is 1.58%.
Take `Cc1cccnc1CNC(=O)N(CCCO)C1CCc2ccccc21` (configuration not stated): the cytotoxicity at 70.5 h was -12.3%.
Under `COc1ccc(CCC2CCCCN2)cc1` (configuration not stated) stands 24.2%.
Turning to `CN(C)C(=O)N[C@@H]1CN(Cc2ccc3c(c2)OCO3)[C@@H]2CCCO[C@@H]21`, the cytotoxicity at 70.5 h was found to be 3.25%.
On to `Cc1ccc(Oc2nccnc2C2CCN(C(=O)C(C)(C)N)CC2)cc1`, for which the cytotoxicity at 70.5 h is -6.45%.
In the case of `CC(=O)N1C[C@@H](F)[C@@H](OCc2nc3ccc(C#N)cc3[nH]2)C1`, the cytotoxicity at 70.5 h was -1.65%.
As for `c1cncc(N2CCOC3(CCCN(c4nncs4)C3)C2)c1` (configuration not stated), the cytotoxicity at 70.5 h was -7.3%.
For the molecule `O=C(CN(C1=NCCCC1)c1ccccc1)c1ccccc1`, the cytotoxicity at 70.5 h was 25.2%.
As for `N#Cc1cccnc1N1CCN(C(=O)CCC(=O)c2cccs2)CC1`, the cytotoxicity at 70.5 h is 14.6%.
`Cc1ncc(CN(C)C(=O)Nc2cccc(C(=O)N3CCOCC3)c2)s1`: the cytotoxicity at 70.5 h is -2.6%.
`N#CC(NC(=O)CC(F)(F)F)c1ccsc1` (configuration not stated): the cytotoxicity at 70.5 h is -7.23%.
Under `CCNC(=O)Cc1ccc(NC(=O)NC(CC)c2ccncc2)cc1` (configuration not stated) stands -2.39%; under `O=C(O)CCc1cn(C2CCN(c3ncccc3Cl)CC2)nn1`, 7.14%; under `CC(C)C(=O)N1CCC(C)(c2cc[nH]n2)CC1`, -0.608%.
As to `O=C(C1CCCCC1)N1CCC2(CC1)CNCc1ccccc12`, the cytotoxicity at 70.5 h came to 0.691%.
On to `Cn1ccc(C(=O)N2C[C@@H]3OCCN(c4ncccn4)[C@@H]3C2)n1`, for which the cytotoxicity at 70.5 h is -12.1%.
Under `O=C(NC1CC1)N1Cc2[nH]nc(COCC3CC3)c2C1` stands -7.86%; under `O=S(=O)(NCC1(O)CCOCC1)c1c(F)cccc1F`, -2.88%; under `CCc1cc(C(=O)N[C@@H]2CC[C@@H](N3CCOCC3)[C@@H]2O)no1`, -4.39%.
For the molecule `CCc1nc(C)c(-c2nccn2CC2CCN(C3CCCC3)CC2)[nH]1`, the cytotoxicity at 70.5 h was -2.56%.
Regarding `CN(C)C(=O)CNC(=O)c1cc2c(s1)CCN2S(C)(=O)=O`, the cytotoxicity at 70.5 h was -10.7%.
Consider `CN(C)CCO[C@H]1CN(C(=O)c2ccc3c(c2)OCO3)[C@@H]2COC[C@H]12`, for which the cytotoxicity at 70.5 h is -11.6%.
With `CN(C)c1cccc(C2CCN(c3ncccn3)CC2)n1`, the cytotoxicity at 70.5 h was -3.49%.
As for `CCc1noc(C)c1C(=O)N1C[C@H](NS(C)(=O)=O)[C@@H](C2CC2)C1`, the cytotoxicity at 70.5 h was -3.78%.
For the molecule `COc1ccc2c(c1)OC1(CCN(Cc3ccc(C)cc3)CC1)CC2=O`, the cytotoxicity at 70.5 h is 7.29%.
With `CN(C)C1CC2(CCN(C(=O)NC3CC3)CC2)c2ccccc21` (configuration not stated), the cytotoxicity at 70.5 h was -7.23%.
`CC1=Nc2c(c(O)nn2C(C)C)C(c2cnn(C)c2)S1` (configuration not stated): the cytotoxicity at 70.5 h was -11%.
With `CN1CCN(C(=O)C2CC=CC2)c2ccccc21`, the cytotoxicity at 70.5 h stood at 9.41%.
Under `COCCO[C@@H]1C[C@H]2CN(C(=O)c3ccc(C)nc3)CCN2C1` stands -9.86%; under `Cc1cc(-c2cnc(NC3CCCCC3)nc2-c2ccco2)on1`, -9.46%; under `COc1cc2c(cc1-c1nc3c(cnn3C(C)C3CC3)[nH]1)OCO2` (configuration not stated), -2.31%.
Take `Cc1cc(C(=O)NCc2ccccc2CN(C)Cc2ccco2)on1`: the cytotoxicity at 70.5 h is 9.59%.
For the molecule `COCC1(C(=O)N[C@H]2CN(c3ccnc(C)c3)C[C@@H]2C2CC2)CCC1`, the cytotoxicity at 70.5 h was -8.46%.
As to `CCC(=O)Nc1cccc(C(=O)NCCC2=CSC3=NCCCN23)c1`, the cytotoxicity at 70.5 h is -7.59%.
As to `CN(c1ccccc1)c1ccc(CC2CCCN(CCO)C2)nn1` (configuration not stated), the cytotoxicity at 70.5 h was 30.2%.
